Source: US4235909A, “Octahydro-2H-pyrrolo[3,4-g]quinolines” (Eli Lilly and Company, priority 1979, dated 1980)
Where a name gives a salt, the structure may show the parent alone.

Tests used:
[1] = test system: 6-hydroxydopamine-lesioned rats; assay: Rat turning test in 6-hydroxydopamine-lesioned (nigro-neostriatal-lesioned) rats, dopamine agonist activity; type: in vivo; details: 1 mg/kg intraperitoneal; for % of Rats Exhibiting Turning Behavior: aqueous solution; for Average Number of Turns/rat: first 15 minutes after end of latency period
Protocol: In this test, nigro-neostriatal-lesioned rats are employed, as prepared by the procedure of Ungerstedt and Arbuthnott, Brain Res, 24, 485 (1970). A compound having dopamine agonist activity causes the rats to turn in circles contralateral to the side of the lesion. After a latency period, which varies from compound to compound, the number of turns is counted over a 15-minute period.
The compounds were dissolved in water and the aqueous solution injected into the rat by the intraperitoneal route at a dose level of 1 mg/kg.

prolactin = assay: Inhibition of prolactin secretion in reserpine-treated male rats; type: in vivo, rat (Sprague-Dawley); details: serum one hour after treatment, reserpine pretreated male rats
Protocol: The compounds of this invention are also useful as prolactin inhibitors and as such they can be employed in the treatment of inappropriate lactation such as postpartum lactation and galactorrhea.
Adult male rats of the Sprague-Dawley strain weighing about 200 g. were housed in an air-conditioned room with controlled lighting (lights on […].) and fed lab chow and water ad libitum. Each rat received an intraperitoneal injection of 2.0 mg. of reserpine in aqueous suspension 18 hours before administration of the test drug. The purpose of the reserpine was to keep prolactin levels uniformly elevated. The compounds under test were dissolved in 10 percent ethanol, and were injected intraperitoneally at doses of 0.5 and 5 mg/kg. Each compound was administered at each dose level to a group of 10 rats, and a control group of 10 intact males received an equivalent amount of 10 percent ethanol. One hour after treatment, all rats were killed by decapitation, and 150 μl aliquots of serum were assayed for prolactin.
The difference between the prolactin level of the treated rats and prolactin level of the control rats, divided by the prolactin level of the control rats gives the percent inhibition of prolactin secretion attributable to the compounds of this invention. In the table, column 1 gives the name of the compound; and columns 2 and 3, the percent prolactin inhibition at the 0.5 and 5 mg/kg dose levels.

[2] = Acute lethality after intraperitoneal dosage (LD50); type: in vivo
Protocol: In using the compounds of this invention to inhibit prolactin secretion or to treat Parkinson's syndrome or for other pharmacologic action, a compound according to Formula I above in which R^2 is C1 -C3 alkyl or allyl and R^1 is H or C1 -C3 alkyl, or a salt thereof with a pharmaceutically-acceptable acid, is administered to a subject suffering from Parkinsonism or in need of having this prolactin level reduced in an effective amount to treat Parkinsonism or to reduce prolactin. Oral administration is preferred. If parenteral administration is used, the injection is preferably by the subcutaneous route using an appropriate pharmaceutical formulation. […] In particular, with intravenous or intramuscular administration, a water soluble pharmaceutically-acceptable salt is employed. For oral administration, the compound either as the free base or in the form of a salt thereof can also be mixed with standard pharmaceutical excipients and loaded into empty telescoping gelatin capsules or pressed into tablets. The oral dosage range is from about […]. to 10 mg./kg. of mammalian weight and the parenteral dose range from about 0.0025 to 2.5 mg./kg.

SMILES	% of Rats Exhibiting Turning Behavior [1]	Average Number of Turns/rat [1]	Percent Prolactin Inhibition at Given Dose (prolactin; 5 mg/kg intraperitoneal)	LD50 ([2]; in vivo, ip, intraperitoneal, indicated from lethality at the doses tested)	deaths ([2]; intraperitoneal dosages of 10-30 mg./kg.)	lethality ([2]; intraperitoneal dosages of 100-300 mg./kg.)	Percent Prolactin Inhibition at Given Dose (prolactin; 0.5 mg/kg intraperitoneal)
CCCN1CCC[C@@H]2Cc3c[nH]cc3C[C@H]21 (relative stereo) [trans-dl-5-n-Propyl-4,4a,5,6,7,8,8a,9-octahydro-2H-pyrrolo-[3,4-g]quinoline maleate]	100%	169 Turns/rat	95%	–	–	–	–
CCCN1CCC[C@@H]2Cc3c[nH]cc3C[C@H]21 (relative stereo)	–	–	–	30 to 100 mg/kg	no deaths	fatal	–
CCCN1C[C@H](CO)C[C@@H]2Cc3c[nH]cc3C[C@H]21 (relative stereo) [trans-dl-5-n-propyl-7-hydroxymethyl-4,4a,5,6,7,8,8a,9-octahydropyrrolo[3,4-g]quinoline]	100%	109 Turns/rat	–	–	–	–	–
CN1CCC[C@@H]2Cc3c[nH]cc3C[C@H]21 (relative stereo) [trans-dl-5-Methyl-4,4a,5,6,7,8,8a,9-octahydro-2H-pyrrolo[3,4-g]quinoline maleate]	33%	20 Turns/rat	90%	–	–	–	23%
